# Target: T1, Bifunctional dihydrofolate reductase-thymidylate synthase (Cryptosporidium parvum, UniProt Q27552)
# T1 sequence (Q27552 whole entry): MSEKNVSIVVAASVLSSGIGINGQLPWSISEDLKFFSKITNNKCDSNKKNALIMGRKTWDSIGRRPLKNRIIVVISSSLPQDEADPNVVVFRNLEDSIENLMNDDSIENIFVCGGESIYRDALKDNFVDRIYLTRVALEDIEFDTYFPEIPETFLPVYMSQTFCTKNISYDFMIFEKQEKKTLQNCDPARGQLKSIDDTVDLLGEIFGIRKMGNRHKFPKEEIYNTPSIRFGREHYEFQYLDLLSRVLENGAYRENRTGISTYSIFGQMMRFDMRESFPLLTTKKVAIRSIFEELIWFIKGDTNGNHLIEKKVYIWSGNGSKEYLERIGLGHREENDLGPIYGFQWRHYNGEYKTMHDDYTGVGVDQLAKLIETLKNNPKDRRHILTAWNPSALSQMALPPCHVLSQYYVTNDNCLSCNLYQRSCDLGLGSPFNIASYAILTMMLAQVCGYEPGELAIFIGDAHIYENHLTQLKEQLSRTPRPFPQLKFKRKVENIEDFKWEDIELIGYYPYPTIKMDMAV
# Test: DHFR Inhibition Assay
# Details: pH 7; 25 °C
# Experimental: Enzyme activity assays were performed by monitoring the change in UV absorbance at 340 nm. Enzyme assays were performed at least four times. IC50 values and their standard deviations were calculated in the presence of varying ligand concentration.
row,Structure (SMILES),IC50
1,"COc1cc(-c2c(C(C)C)cccc2C(C)C)cc(C(C)C#Cc2c(C)nc(N)nc2N)c1 (stereo unspecified) [5-(3-{3-[2,6-bis(propan-2-yl)phenyl]-5-methoxyphenyl}but-1-yn-1-yl)-6-methylpyrimidine-2,4-diamine]",10 nM
2,"COc1cc(C(C)C#Cc2c(C)nc(N)nc2N)ccc1-c1ccccc1 (stereo unspecified) [5-[3-(3-methoxy-4-phenylphenyl)but-1-yn-1-yl]-6-methylpyrimidine-2,4-diamine]",19 nM
3,"COc1cc(-c2ccccc2)cc([C@@H](C)C#Cc2c(C)nc(N)nc2N)c1 [5-[(3R)-3-(3-methoxy-5-phenylphenyl)but-1-yn-1-yl]-6-methylpyrimidine-2,4-diamine]",1.1 nM
4,"COc1cc(-c2ccccc2)cc([C@H](C)C#Cc2c(C)nc(N)nc2N)c1 [5-[(3S)-3-(3-methoxy-5-phenylphenyl)but-1-yn-1-yl]-6-methylpyrimidine-2,4-diamine]",30 nM
5,"COc1cc(C(C)C#Cc2c(C)nc(N)nc2N)ccc1-c1ccccc1C (stereo unspecified) [5-{3-[3-methoxy-4-(2-methylphenyl)phenyl]but-1-yn-1-yl}-6-methylpyrimidine-2,4-diamine]",36 nM
6,"COc1cc(C(C)C#Cc2c(C)nc(N)nc2N)ccc1-c1c(C)cccc1C (stereo unspecified) [5-{3-[4-(2,6-dimethylphenyl)-3-methoxyphenyl]but-1-yn-1-yl}-6-methylpyrimidine-2,4-diamine]",7.4 nM
